Reference: patent US20060189678A1, “4,5-dihydronaphtho[1,2-b]thiophene derivative” (priority 2003, published 2006)

How the values were obtained:
[1] = tested on: Male KKAy mice (model for type 2 diabetes); test: Serum glucose level in KKAy mice (enzyme method, L-type Wako GLU2); assay type: in vivo; conditions: n=6, subcutaneous 3 mg/5 mL/kg twice a day for 2 weeks, serum from orbital venous plexus blood, control group 532, healthy group 211, ** P<0.01
Procedure: (§1) Male KKAy mice (11 to 12 weeks old) (each n=6) were used as a model for type 2 diabetes. 11% sulfobutyl ether-β-cyclodextrin was added to the compounds of Examples 1 and 59, and these products were administered subcutaneously in a dose of 3 mg/5 mL/kg, twice a day, continuously for 2 weeks. A group that was given just the vehicle was used as a control group, and male C57BL/6J mice (11 to 12 weeks old) (n=6) that had similarly been given the vehicle were used for a healthy group. The livers were collected, and a Triglyceride E Test Wako (Wako Pure Chemicals) was used to quantify the triglyceride content in the liver. […] Blood was also sampled from the orbital venous plexus, and the glucose level in the separated serum was quantified by enzyme method using a L-type Wako GLU2 (Wako Pure Chemicals).

[2] = tested on: Male KKAy mice (model for type 2 diabetes); test: Triglyceride content in the liver of KKAy mice (Triglyceride E Test Wako); assay type: in vivo; conditions: n=6, subcutaneous 3 mg/5 mL/kg twice a day for 2 weeks, control group 61.7, healthy group 12.5, * P<0.05, ** P<0.01
Procedure: as §1

SMILES	Blood glucose level [1]	Triglyceride content in liver [2]
CC(=O)c1cc2c(s1)-c1cc(C)cc(C)c1CC2 [Example 1, 2-acetyl-4,5-dihydro-6,8-dimethylnaphtho[1,2-b]thiophene]	491 mg/dL	47.5* mg/g liver
Cc1cc(C)c2c(c1)-c1sc(CCO)cc1CC2 [Example 59, 2-(2-hydroxyethyl)-4,5-dihydro-6,8-dimethylnaphtho[1,2-b]thiophene]	269** mg/dL	34.8** mg/g liver
